Test results: ChEMBL document CHEMBL1201862, “PubChem BioAssay data set” (2004)
The source made the active and inactive calls.

What was measured:
[1] = molecular target: T1, Replicative DNA helicase DnaB (Mycobacterium tuberculosis, UniProt P9WMR3); experiment: DnaB intein splicing inhibitors, dose response, biochemical, cell-free fluorescence (AID 449749); assay type: functional
T1 sequence (P9WMR3 whole entry): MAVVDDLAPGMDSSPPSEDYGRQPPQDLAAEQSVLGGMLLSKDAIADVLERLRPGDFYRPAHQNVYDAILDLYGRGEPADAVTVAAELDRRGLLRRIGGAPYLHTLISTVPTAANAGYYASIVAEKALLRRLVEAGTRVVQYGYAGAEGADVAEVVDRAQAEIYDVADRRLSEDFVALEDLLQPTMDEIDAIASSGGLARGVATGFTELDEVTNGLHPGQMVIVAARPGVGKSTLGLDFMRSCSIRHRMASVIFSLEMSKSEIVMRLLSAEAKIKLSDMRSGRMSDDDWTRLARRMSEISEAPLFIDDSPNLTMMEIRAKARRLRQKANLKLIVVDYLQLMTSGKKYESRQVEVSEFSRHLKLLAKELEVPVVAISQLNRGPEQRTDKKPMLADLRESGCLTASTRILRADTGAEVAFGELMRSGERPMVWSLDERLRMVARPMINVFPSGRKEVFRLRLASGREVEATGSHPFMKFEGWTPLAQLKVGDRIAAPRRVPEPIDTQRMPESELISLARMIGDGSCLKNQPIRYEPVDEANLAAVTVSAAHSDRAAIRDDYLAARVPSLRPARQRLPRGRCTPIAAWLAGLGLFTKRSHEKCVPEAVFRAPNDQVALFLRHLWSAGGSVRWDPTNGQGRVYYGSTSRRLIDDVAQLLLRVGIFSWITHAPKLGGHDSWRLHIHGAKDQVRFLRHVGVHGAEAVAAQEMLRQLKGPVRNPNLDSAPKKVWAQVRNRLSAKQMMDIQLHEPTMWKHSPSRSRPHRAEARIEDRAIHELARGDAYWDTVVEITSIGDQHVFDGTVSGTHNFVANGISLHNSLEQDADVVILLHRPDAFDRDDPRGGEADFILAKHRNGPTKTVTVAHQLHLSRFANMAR

[2] = molecular target: Serine/threonine-protein kinase 17A (Homo sapiens, UniProt Q9UEE5); assay type: functional
[3] = molecular target: Tyrosine-protein kinase SYK (Homo sapiens, UniProt P43405); assay type: functional
[4] = molecular target: T2, Short transient receptor potential channel 4 (Mus musculus, UniProt Q9QUQ5); experiment: mouse TRPC4 channel activators, dose response, cell-based, HEK293 TRPC4/mu-opioid, Fluo-4 calcium (AID 434937); assay type: functional
T2 sequence (Q9QUQ5 whole entry): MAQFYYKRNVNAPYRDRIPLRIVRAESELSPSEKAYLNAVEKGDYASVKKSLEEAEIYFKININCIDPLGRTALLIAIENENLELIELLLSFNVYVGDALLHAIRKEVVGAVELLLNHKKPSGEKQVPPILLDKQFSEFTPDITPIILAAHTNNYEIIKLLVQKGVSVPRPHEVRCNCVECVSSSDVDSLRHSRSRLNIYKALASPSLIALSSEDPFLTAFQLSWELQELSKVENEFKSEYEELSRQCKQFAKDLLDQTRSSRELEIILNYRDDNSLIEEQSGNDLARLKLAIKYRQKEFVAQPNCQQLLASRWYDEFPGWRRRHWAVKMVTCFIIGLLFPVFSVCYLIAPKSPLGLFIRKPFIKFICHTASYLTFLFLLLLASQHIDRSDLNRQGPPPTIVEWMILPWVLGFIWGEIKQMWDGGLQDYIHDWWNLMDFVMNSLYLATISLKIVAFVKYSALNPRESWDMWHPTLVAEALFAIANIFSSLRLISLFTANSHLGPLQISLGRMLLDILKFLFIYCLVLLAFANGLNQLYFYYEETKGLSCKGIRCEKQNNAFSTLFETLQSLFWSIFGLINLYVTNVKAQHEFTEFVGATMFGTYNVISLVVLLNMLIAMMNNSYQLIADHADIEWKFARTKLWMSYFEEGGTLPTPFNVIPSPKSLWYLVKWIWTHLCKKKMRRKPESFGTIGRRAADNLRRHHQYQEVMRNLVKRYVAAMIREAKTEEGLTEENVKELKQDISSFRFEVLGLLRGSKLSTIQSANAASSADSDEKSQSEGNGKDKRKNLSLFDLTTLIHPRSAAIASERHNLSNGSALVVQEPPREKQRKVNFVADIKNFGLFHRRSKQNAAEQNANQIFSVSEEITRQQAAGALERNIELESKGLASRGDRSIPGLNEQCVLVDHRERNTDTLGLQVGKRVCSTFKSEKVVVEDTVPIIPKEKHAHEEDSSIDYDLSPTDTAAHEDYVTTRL

HEK293 = experiment: HEK cell cytotoxicity by LDH release, dose response, cytotoxicity control for IDE activator project, fluorescence, HEK cells (AID 588440); assay type: functional, cell-based; settings: Homo sapiens;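 note: cytotoxicity by LDH release measuring loss of membrane integrity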
LIM domain kinase 1 = LIM domain kinase 1 (Homo sapiens, UniProt P53667); experiment: Navigating the Kinome. Panel member name: LIMK1; assay type: functional
[5] = molecular target: Serine/threonine-protein kinase Nek2 (Homo sapiens, UniProt P51955); assay type: functional
[6] = molecular target: Platelet-derived growth factor receptor beta (Homo sapiens, UniProt P09619); assay type: functional;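 note: value comes from a kinome panel, with PDGFRB tested as one panel member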
[7] = molecular target: Serine/threonine-protein kinase Chk1 (Homo sapiens, UniProt O14757); assay type: functional;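 note: measured as one member of a kinome-wide kinase profiling panel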
[8] = CEM21 lymphoblast cell cytotoxicity, dose response, cytotoxicity control for viral fusion inhibitor project, CellTiter-Glo luminescence, cherry-picked (AID 652042); assay type: functional, cell-based;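 note: potency for signal decrease meaning cytotoxicity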
[9] = C. albicans growth with fluconazole, confirmation, fluorescence, retest (AID 2467); assay type: functional, cell-based
[10] = inhibitors of intracellular T. cruzi replication, confirmation, NIH3T3 host cells, beta-gal luminescence (AID 2044); assay type: functional, cell-based;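 note: intracellular parasites grown in NIH/3T3 mouse fibroblasts as host cells; luminescent beta-galactosidase reporter signal from transgenic T. cruzi replicating inside host cells; inhibitors lower the luminescence signal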
HeLa = experiment: Cytotoxicity counterscreen assay for transcriptional activators of heat shock protein 70 (Hsp70). [Related pubchem assays: 1203, 1252 ]; assay type: functional; settings: Homo sapiens;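 note: cells exposed to compound for 16 hours before readout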
[11] = molecular target: ATP-dependent molecular chaperone HSP82 (Candida albicans (strain WO-1) (Yeast), UniProt C4YTQ8); experiment: loss of DOC-induced GRE-beta-galactosidase reporter signal, dose response, Hsp90 inhibitor project, S. cerevisiae, luminescence (AID 2400); assay type: functional, cell-based;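 note: beta-galactosidase luminescence from glucocorticoid response element reporter as proxy for Hsp90 function; inhibitor potency where signal loss means Hsp90 inhibition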
cells = assay type: functional, cell-based
BJ = experiment: cells; assay type: functional, cell-based; settings: Homo sapiens
[12] = molecular target: 72 kDa type IV collagenase (Homo sapiens, UniProt P08253); experiment: Dose Response validation of uHTS RPN11 inhibitor hits using a MMP-2 Fluorescence assay.; assay type: functional
[13] = molecular target: Intestinal-type alkaline phosphatase (Homo sapiens, UniProt P09923); experiment: human intestinal alkaline phosphatase activators, dose response, biochemical, luminescence, uHTS hits (AID 463120); assay type: functional
Sequence of Intestinal-type alkaline phosphatase (P09923 whole entry): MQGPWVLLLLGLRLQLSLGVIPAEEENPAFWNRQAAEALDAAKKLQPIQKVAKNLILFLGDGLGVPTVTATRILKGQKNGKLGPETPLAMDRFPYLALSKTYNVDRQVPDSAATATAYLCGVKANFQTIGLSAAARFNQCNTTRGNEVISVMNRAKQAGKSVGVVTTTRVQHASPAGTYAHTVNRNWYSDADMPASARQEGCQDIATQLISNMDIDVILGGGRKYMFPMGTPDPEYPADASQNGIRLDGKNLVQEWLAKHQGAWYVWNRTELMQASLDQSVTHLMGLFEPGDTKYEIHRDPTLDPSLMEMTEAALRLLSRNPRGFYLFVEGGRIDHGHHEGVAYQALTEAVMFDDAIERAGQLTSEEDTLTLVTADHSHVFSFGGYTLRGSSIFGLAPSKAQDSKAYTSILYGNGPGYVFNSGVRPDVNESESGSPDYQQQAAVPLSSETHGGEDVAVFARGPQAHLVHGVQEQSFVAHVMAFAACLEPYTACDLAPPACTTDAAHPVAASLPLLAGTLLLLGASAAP

Sequence of Serine/threonine-protein kinase Chk1 (O14757 whole entry, the tested form may be a part): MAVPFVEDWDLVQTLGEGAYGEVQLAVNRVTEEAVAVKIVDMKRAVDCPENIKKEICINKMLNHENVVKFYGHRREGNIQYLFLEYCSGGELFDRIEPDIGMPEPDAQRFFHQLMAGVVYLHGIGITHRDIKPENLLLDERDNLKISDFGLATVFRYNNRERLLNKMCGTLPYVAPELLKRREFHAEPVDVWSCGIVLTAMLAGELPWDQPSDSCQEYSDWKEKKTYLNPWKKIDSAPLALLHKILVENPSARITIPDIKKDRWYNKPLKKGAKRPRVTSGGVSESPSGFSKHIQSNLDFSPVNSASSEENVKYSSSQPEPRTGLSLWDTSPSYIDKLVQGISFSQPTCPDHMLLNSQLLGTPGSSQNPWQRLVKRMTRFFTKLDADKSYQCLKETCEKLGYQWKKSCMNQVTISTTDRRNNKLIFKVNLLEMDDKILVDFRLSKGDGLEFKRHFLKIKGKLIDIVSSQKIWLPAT
Sequence of Platelet-derived growth factor receptor beta (P09619 whole entry): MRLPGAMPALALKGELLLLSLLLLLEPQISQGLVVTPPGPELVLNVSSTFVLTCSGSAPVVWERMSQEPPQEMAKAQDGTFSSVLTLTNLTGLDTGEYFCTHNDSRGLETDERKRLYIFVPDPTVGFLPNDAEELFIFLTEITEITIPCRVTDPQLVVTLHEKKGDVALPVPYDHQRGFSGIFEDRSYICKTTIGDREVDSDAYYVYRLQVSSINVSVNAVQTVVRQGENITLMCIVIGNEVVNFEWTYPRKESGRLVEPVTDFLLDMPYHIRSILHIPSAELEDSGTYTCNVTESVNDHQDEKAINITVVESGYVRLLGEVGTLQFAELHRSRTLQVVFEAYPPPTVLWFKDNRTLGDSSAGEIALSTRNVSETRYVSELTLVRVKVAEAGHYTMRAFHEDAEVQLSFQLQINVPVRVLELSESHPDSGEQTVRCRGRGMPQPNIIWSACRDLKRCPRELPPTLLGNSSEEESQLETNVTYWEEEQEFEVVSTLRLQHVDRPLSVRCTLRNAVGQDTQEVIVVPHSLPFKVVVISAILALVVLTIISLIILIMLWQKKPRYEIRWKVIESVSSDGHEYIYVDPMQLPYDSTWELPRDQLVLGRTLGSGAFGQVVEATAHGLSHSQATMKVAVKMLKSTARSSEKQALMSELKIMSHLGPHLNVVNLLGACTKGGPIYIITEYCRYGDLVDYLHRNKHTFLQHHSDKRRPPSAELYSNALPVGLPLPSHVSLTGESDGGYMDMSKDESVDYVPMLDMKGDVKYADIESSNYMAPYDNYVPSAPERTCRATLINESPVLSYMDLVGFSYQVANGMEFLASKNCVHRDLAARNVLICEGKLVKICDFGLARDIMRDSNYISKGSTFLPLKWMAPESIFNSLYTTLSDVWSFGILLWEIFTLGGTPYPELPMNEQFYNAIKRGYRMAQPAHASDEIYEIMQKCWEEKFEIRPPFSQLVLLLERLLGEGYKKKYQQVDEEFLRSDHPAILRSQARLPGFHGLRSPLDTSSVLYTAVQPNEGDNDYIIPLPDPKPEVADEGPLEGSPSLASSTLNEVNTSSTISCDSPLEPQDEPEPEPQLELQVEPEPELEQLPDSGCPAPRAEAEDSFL
Sequence of 72 kDa type IV collagenase (P08253 whole entry): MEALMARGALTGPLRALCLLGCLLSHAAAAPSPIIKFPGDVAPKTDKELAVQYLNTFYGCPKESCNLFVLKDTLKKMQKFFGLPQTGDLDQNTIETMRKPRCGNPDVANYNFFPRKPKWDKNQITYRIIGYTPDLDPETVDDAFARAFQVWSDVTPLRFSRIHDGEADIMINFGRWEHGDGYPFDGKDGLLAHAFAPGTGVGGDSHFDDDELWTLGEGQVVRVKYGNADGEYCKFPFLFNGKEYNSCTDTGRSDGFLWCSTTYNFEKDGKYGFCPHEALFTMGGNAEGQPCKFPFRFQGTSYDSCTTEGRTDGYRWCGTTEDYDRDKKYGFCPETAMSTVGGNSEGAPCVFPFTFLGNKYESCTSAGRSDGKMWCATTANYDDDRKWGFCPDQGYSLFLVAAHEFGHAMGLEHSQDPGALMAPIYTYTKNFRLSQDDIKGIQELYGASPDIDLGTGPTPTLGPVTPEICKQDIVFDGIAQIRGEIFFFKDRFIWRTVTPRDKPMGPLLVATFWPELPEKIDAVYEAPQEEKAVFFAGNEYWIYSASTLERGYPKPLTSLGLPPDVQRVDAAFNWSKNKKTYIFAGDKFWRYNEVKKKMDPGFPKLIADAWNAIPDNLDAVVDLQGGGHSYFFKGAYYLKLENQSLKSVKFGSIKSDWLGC
Sequence of ATP-dependent molecular chaperone HSP82 (C4YTQ8 whole entry): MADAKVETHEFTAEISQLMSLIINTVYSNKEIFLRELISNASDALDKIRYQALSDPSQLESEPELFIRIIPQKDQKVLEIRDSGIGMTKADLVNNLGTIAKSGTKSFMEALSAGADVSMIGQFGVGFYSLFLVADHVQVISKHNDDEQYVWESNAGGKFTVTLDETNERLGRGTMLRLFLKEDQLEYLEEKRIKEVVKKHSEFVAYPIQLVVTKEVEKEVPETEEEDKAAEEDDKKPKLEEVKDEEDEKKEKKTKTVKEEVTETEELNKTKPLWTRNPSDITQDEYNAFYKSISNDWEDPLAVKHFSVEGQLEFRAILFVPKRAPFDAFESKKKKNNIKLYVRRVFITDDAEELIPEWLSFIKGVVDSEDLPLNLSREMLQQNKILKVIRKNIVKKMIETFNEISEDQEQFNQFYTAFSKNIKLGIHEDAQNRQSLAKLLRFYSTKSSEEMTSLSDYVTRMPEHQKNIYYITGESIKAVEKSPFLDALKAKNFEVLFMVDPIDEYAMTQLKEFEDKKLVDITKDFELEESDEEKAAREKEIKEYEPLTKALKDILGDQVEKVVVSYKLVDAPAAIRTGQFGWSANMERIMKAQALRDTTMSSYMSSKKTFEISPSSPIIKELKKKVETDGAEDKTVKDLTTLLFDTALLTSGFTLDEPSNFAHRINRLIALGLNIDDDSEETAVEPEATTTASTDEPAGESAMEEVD
Sequence of Serine/threonine-protein kinase Nek2 (P51955 whole entry): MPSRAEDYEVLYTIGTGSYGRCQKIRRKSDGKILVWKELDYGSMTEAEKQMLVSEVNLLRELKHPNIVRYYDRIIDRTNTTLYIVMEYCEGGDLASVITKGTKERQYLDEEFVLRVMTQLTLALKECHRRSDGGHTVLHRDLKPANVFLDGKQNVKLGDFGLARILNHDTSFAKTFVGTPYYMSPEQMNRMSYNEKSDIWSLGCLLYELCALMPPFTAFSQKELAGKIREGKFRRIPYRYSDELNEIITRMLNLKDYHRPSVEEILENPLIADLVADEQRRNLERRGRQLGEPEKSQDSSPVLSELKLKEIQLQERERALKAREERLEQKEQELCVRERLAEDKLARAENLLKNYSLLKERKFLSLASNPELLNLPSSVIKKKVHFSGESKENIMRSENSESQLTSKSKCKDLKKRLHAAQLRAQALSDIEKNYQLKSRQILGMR
Sequence of LIM domain kinase 1 (P53667 whole entry, the tested form may be a part): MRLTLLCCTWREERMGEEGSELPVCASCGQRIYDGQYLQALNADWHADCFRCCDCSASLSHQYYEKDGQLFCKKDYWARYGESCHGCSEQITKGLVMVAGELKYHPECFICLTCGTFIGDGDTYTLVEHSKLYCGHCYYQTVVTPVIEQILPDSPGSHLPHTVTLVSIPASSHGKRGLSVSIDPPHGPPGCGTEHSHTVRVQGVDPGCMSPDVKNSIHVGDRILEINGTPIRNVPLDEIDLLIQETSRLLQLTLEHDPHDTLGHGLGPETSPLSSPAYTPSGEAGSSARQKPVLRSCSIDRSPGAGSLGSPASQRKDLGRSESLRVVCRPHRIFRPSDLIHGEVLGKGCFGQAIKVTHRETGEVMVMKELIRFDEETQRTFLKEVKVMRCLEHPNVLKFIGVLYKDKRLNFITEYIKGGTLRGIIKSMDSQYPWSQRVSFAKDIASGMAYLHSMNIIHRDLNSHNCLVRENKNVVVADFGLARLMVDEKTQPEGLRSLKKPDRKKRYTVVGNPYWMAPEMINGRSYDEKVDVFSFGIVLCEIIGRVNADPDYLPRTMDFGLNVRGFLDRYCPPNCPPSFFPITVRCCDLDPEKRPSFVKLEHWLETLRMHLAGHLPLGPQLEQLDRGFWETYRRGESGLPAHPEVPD
Sequence of Serine/threonine-protein kinase 17A (Q9UEE5 whole entry): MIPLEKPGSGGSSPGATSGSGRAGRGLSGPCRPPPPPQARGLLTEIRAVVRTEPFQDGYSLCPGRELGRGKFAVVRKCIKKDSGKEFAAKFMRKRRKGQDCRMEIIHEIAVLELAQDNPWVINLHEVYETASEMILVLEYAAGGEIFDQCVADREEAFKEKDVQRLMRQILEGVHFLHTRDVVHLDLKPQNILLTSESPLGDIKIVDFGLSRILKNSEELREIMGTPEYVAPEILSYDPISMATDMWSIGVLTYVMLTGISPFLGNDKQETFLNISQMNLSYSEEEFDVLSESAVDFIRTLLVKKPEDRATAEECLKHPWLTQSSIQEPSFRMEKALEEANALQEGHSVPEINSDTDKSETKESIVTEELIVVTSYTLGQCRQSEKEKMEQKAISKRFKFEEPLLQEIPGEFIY

Structure (SMILES): O=C(Cc1ccccc1Cl)NC1(O)C(=O)c2ccccc2C1=O
- AC50 [1]: 7.96 µM (active)

Structure (SMILES): O=C(Nc1cc(-c2c[nH]c3ncccc23)cc(Cl)n1)c1ccccc1
- Ki [2]: 1.58 µM (active)
- Ki [3]: > 1.58 µM (inactive)

Structure (SMILES): CNC[C@H](Cc1ccccc1)NC[C@@H](Cc1cccc2ccccc12)NCCc1ccc(C)cc1
- EC50 [4]: 9.44 µM (active)
- IC50 (HEK293): 9.04 µM (active)

Structure (SMILES): Nc1c(-c2ccc(NC(=O)Nc3cccc(C(F)(F)F)c3)cc2)cnc2c(-c3ccc4c(c3)OCO4)cnn12
- Ki (LIM domain kinase 1): > 3.16 µM (inactive)
- Ki [5]: 1.26 µM (active)
- Ki [6]: 0.00794 µM (active)
- Ki [7]: > 3.16 µM (inactive)

Structure (SMILES): CCN1C(=Cc2sc3ccccc3[n+]2C)C=Cc2cccc(C)c21
- AC50 [8]: 4.69 µM (active)
- EC50 [9]: 0.054 µM (active)
- EC50 [10]: < 0.1 µM (active)
- CC50 (HeLa): 1.87 µM (active)
- EC50 [11]: 37.3 µM (active)
- EC50 (cells): > 12 µM (not active)

Structure (SMILES): O=C(N/N=C/c1c(O)ccc2ccccc12)c1[nH]ncc1Br
- EC50 (BJ): 7.88 µM (active)
- IC50 [12]: > 100 µM (inactive)
- EC50 [13]: 7.56 µM (active)
